Data taken from patent publication US20050239656A1, “Pyridine compounds or salts thereof and herbicides containing the same” (priority 2002, published 2005).

What was measured:
[1] = system: rice; assay: Test Example 2: soil surface treatment, upland pot test; format: in vivo, Oryza sativa L.; conditions: active ingredient 500 g/ha
How it was run: (§1)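 Readout was visual percent growth control (0 matching untreated, 100 complete kill) at days 20–28. Compound, as emulsifiable concentrate or wettable powder at a preset active-ingredient rate in 1,500 L/ha water, was sprayed onto sown upland soil one day after sowing.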

[2] = system: japanese bulrush; assay: Test Example 3: paddy pot test, application under submerged conditions; format: in vivo, Scirpus juncoides; conditions: submerged application at 0.5 leaf stage, visually observed 14 days after application, 0 = non-treated, 100 = complete kill
How it was run: (§2)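 After sowing seeds and planting wapato tubers in flooded paddy soil, an aqueous dilution of the formulated compound was added to the 3–4 cm flood water at early leaf stage. Percent growth control relative to the untreated plot was assessed visually on day 14.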

[3] = system: redroot pigweed; assay: Test Example 1: foliage treatment, upland pot test; format: in vivo, Amaranthus retroflexus L.; conditions: active ingredient 500 g/ha, observed 18th to 23rd day, 0 = non-treated, 100 = complete kill
[4] = system: prickly sida; assay: Test Example 2: soil surface treatment, upland pot test; format: in vivo, Sida spinosa L.; conditions: active ingredient 500 g/ha
How it was run: as §1

[5] = system: crabgrass; assay: Test Example 1: foliage treatment, upland pot test; format: in vivo, Digitaria sanguinalis L.; conditions: active ingredient 500 g/ha, observed 18th to 23rd day, 0 = non-treated, 100 = complete kill
[6] = system: corn; assay: Test Example 2: soil surface treatment, upland pot test; format: in vivo, Zea mays L.; conditions: active ingredient 500 g/ha
How it was run: as §1

[7] = system: velvetleaf; assay: Test Example 1: foliage treatment, upland pot test; format: in vivo, Abutilon theophrasti MEDIC.; conditions: active ingredient 500 g/ha, observed 18th to 23rd day, 0 = non-treated, 100 = complete kill
[8] = system: rice; assay: Test Example 1: foliage treatment, upland pot test; format: in vivo, Oryza sativa L.; conditions: crop, active ingredient 500 g/ha, observed 18th to 23rd day, 0 = non-treated, 100 = complete kill
How it was run: (§3)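 Each plant species was sprayed once on its foliage, with wheat at 1.3–2.4, soybean at 0.1–0.4, barnyardgrass at 1.3–2.8 and rice at 1.2–2.6 leaves. Visual ratings of growth inhibition, 0 to 100%, followed 18–23 days later.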

[9] = system: barnyardgrass; assay: Test Example 2: soil surface treatment, upland pot test; format: in vivo, Echinochloa crus-galli L.; conditions: active ingredient 500 g/ha
How it was run: as §1

[10] = system: barnyardgrass; assay: Test Example 1: foliage treatment, upland pot test; format: in vivo, Echinochloa crus-galli L.; conditions: active ingredient 500 g/ha, observed 18th to 23rd day, 0 = non-treated, 100 = complete kill
How it was run: as §3

[11] = system: rice (var. Nihonbare); assay: Test Example 3: paddy pot test, transplanted rice; format: in vivo, Oryza sativa L.; conditions: applied 4th day after transplantation, visually observed 21st day after application, 0 = non-treated, 100 = complete kill
How it was run: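 Rice (2-leaf stage) was transplanted 3 cm deep into puddled, leveled paddy soil under 3–4 cm flooding. On day 4 after transplanting, diluted wettable powder or emulsifiable concentrate was pipetted onto the water at a predetermined active-ingredient dose. Growth control (0 = untreated, 100 = complete kill) was scored visually 21 days later.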

[12] = system: soybean; assay: Test Example 1: foliage treatment, upland pot test; format: in vivo, Glycine max Merr.; conditions: crop, active ingredient 500 g/ha, observed 18th to 23rd day, 0 = non-treated, 100 = complete kill
How it was run: as §3

[13] = system: green foxtail; assay: Test Example 2: soil surface treatment, upland pot test; format: in vivo, Setaria viridis L.; conditions: active ingredient 500 g/ha
How it was run: as §1

[14] = system: japanese ribbon wapato; assay: Test Example 3: paddy pot test, application under submerged conditions; format: in vivo, Sagittaria pygniaea; conditions: submerged application at primary leaf stage, visually observed 14 days after application, 0 = non-treated, 100 = complete kill
How it was run: as §2

[15] = system: corn; assay: Test Example 1: foliage treatment, upland pot test; format: in vivo, Zea mays L.; conditions: crop, active ingredient 500 g/ha, observed 18th to 23rd day, 0 = non-treated, 100 = complete kill
How it was run: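 In this upland pot foliage test, corn plants at 2.1 to 3.2 leaf stages were sprayed by a small size sprayer. The spray was a conventionally formulated wettable powder or emulsifiable concentrate weighed to a set active ingredient amount, diluted in water at 500 L/ha, plus 0.1% (v/v) agricultural spreader. Visual assessment on days 18 to 23 gave growth controlling degree (%), where 0 equals untreated and 100 means complete kill.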

[16] = system: soybean; assay: Test Example 2: soil surface treatment, upland pot test; format: in vivo, Glycine max Merr.; conditions: active ingredient 500 g/ha
How it was run: as §1

[17] = system: redroot pigweed; assay: as above; format: in vivo, Amaranthus retroflexus L.; conditions: active ingredient 500 g/ha
How it was run: as §1

[18] = system: crabgrass; assay: as above; format: in vivo, Digitaria sanguinalis L.; conditions: active ingredient 500 g/ha
How it was run: as §1

[19] = system: velvetleaf; assay: as above; format: in vivo, Abutilon theophrasti MEDIC.; conditions: active ingredient 500 g/ha
How it was run: as §1

[20] = system: barnyardgrass; assay: Test Example 3: paddy pot test, application under submerged conditions; format: in vivo, Echinochloa crus-galli L.; conditions: submerged application at 0.5 leaf stage, visually observed 14 days after application, 0 = non-treated, 100 = complete kill
How it was run: as §2

[21] = system: green foxtail; assay: Test Example 1: foliage treatment, upland pot test; format: in vivo, Setaria viridis L.; conditions: active ingredient 500 g/ha, observed 18th to 23rd day, 0 = non-treated, 100 = complete kill
[22] = system: prickly sida; assay: Test Example 1: foliage treatment, upland pot test; format: in vivo, Sida spinosa L.; conditions: active ingredient 500 g/ha, observed 18th to 23rd day, 0 = non-treated, 100 = complete kill
[23] = observed day 21, 0 = non-treated, 100 = complete kill

Row | SMILES | Growth controlling degree (%) Rice ([1]; observed 20th to 28th day) | Growth controlling degree (%) Japanese bulrush ([2]; active ingredient 250 g/ha) | Growth controlling degree (%) Redroot pigweed [3] | Growth controlling degree (%) Prickly sida ([4]; observed 20th to 28th day) | Growth controlling degree (%) Crabgrass [5] | Growth controlling degree (%) Corn ([6]; observed 20th to 28th day) | Growth controlling degree (%) Velvetleaf [7] | Growth controlling degree (%) Rice [8] | Growth controlling degree (%) Barnyardgrass ([9]; observed 20th to 28th day) | Growth controlling degree (%) Barnyardgrass [10] | Growth controlling degree (%) Rice ([11]; active ingredient 250 g/ha) | Growth controlling degree (%) Soybean [12] | Growth controlling degree (%) Green foxtail ([13]; observed 20th to 28th day) | Growth controlling degree (%) Japanese ribbon wapato ([14]; active ingredient 250 g/ha) | Growth controlling degree (%) Corn [15] | Growth controlling degree (%) Soyabean ([16]; observed 20th to 28th day) | Growth controlling degree (%) Redroot pigweed ([17]; observed 20th to 28th day) | Growth controlling degree (%) Crabgrass ([18]; observed 20th to 28th day) | Growth controlling degree (%) Green foxtail [21] | Growth controlling degree (%) Prickly sida [22] | further results
1 | CC(C)C(c1cnccc1C(F)(F)F)N(C)C(=O)CC1CCCC1 (centres unmarked) [I-165] | 10% | 98% | 70% | 70% | 95% | 20% | 80% | 10% | 100% | 80% | 10% | 80% | 100% | 60% | 40% | 20% | 80% | 100% | 70% | 80% | Growth controlling degree (%) Velvetleaf ([19]; observed 20th to 28th day): 50%; Growth controlling degree (%) Barnyardgrass ([20]; active ingredient 250 g/ha): 98%
2 | CC(C)C(c1cnccc1C(F)(F)F)N(C)C(=O)C=Cc1ccc(Br)cc1 (centres unmarked) [I-178] | 40% |  | 70% | 30% | 60% | 10% | 95% | 40% | 90% | 50% |  | 60% | 100% |  | 10% | 0% | 40% | 98% | 60% | 95% | Growth controlling degree (%) Japanese bulrush ([2]; active ingredient 500 g/ha): 95%; Growth controlling degree (%) Rice ([11]; active ingredient 500 g/ha): 0%; Growth controlling degree (%) Japanese ribbon wapato ([14]; active ingredient 500 g/ha): 40%; Growth controlling degree (%) Velvetleaf ([19]; observed 20th to 28th day): 40%; Growth controlling degree (%) Barnyardgrass ([20]; active ingredient 500 g/ha): 98%
3 | CC(C)C(c1cnccc1C(F)(F)F)N(C)C(=O)COc1ccccc1 (centres unmarked) [I-229] | 50% |  | 80% | 100% | 80% | 100% | 90% | 30% | 100% | 60% |  | 50% | 100% |  | 10% | 10% | 98% | 100% | 70% | 80% | Growth controlling degree (%) Japanese bulrush ([2]; active ingredient 500 g/ha): 95%; Growth controlling degree (%) Rice ([11]; active ingredient 500 g/ha): 0%; Growth controlling degree (%) Japanese ribbon wapato ([14]; active ingredient 500 g/ha): 90%; Growth controlling degree (%) Velvetleaf ([19]; observed 20th to 28th day): 50%; Growth controlling degree (%) Barnyardgrass ([20]; active ingredient 500 g/ha): 100%
4 | CC(C)C(c1cnccc1C(F)(F)F)N(C)C(=O)Cc1cccs1 (centres unmarked) [I-258] |  | 98% | 80% |  | 90% |  | 90% | 10% |  | 80% | 30% | 70% |  | 70% | 10% |  |  |  | 50% | 70% | Growth controlling degree (%) Rice [1, 23]: 10%; Growth controlling degree (%) Prickly sida [4, 23]: 100%; Growth controlling degree (%) Corn [6, 23]: 0%; Growth controlling degree (%) Barnyardgrass [9, 23]: 100%; Growth controlling degree (%) Green foxtail [13, 23]: 100%; Growth controlling degree (%) Soyabean [16, 23]: 10%; Growth controlling degree (%) Redroot pigweed [17, 23]: 90%; Growth controlling degree (%) Crabgrass [18, 23]: 100%; Growth controlling degree (%) Velvetleaf [19, 23]: 60%; Growth controlling degree (%) Barnyardgrass ([20]; active ingredient 250 g/ha): 100%
5 | CCC(C)C(c1cnccc1C(F)(F)F)N(C)C(=O)Cc1ccccc1 (centres unmarked) [I-260] |  | 98% | 40% |  | 80% |  | 90% | 40% |  | 80% | 10% | 90% |  | 60% | 80% |  |  |  | 50% | 95% | Growth controlling degree (%) Rice [1, 23]: 10%; Growth controlling degree (%) Prickly sida [4, 23]: 95%; Growth controlling degree (%) Corn [6, 23]: 30%; Growth controlling degree (%) Barnyardgrass [9, 23]: 80%; Growth controlling degree (%) Green foxtail [13, 23]: 100%; Growth controlling degree (%) Soyabean [16, 23]: 20%; Growth controlling degree (%) Redroot pigweed [17, 23]: 70%; Growth controlling degree (%) Crabgrass [18, 23]: 98%; Growth controlling degree (%) Velvetleaf [19, 23]: 70%; Growth controlling degree (%) Barnyardgrass ([20]; active ingredient 250 g/ha): 100%
